Read-outs that look alike come from different tables or passages of the source.

The test system of assay [1] is human A1 adenosine receptor. The following applies: synthetic agonist; cited from earlier work.
For assay [2], the target named is T1, human A3 receptor (Homo sapiens, UniProt P0DMS8).
T1 sequence (P0DMS8 1-318): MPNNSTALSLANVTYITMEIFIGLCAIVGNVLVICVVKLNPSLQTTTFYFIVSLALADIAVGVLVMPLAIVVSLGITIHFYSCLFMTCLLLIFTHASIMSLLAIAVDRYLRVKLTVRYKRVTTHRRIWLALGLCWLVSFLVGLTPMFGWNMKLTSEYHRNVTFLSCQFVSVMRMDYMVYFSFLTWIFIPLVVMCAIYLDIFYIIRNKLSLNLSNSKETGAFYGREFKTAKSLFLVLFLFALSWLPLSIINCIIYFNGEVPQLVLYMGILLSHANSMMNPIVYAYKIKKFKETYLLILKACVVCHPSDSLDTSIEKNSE
Put plainly: Displacement binding of [3H]CPX, yeast membranes expressing hA3R.

The target of assay [3] is human A1 receptor subtype (Homo sapiens, UniProt P30542).
Assay [4] concerns the target human adenosine A1 receptor (Homo sapiens, UniProt P30542). Nature of the assay: Yeast β-Galactosidase reporter gene assay (strain CY12660): inhibition of NECA-induced β-Galactosidase activity. The note with it: read-out: Al Yeast IC50. Background: Reporter assays use an easily measured gene product as a stand-in for the process of interest.
Assay [5] addresses T2, human A3 receptor subtype (Homo sapiens, UniProt P0DMS8).
T2 sequence (P0DMS8 1-318): T1 sequence (P0DMS8 1-318)
Nature of the assay: Adenosine 3 receptor competition radioligand binding, [125I] AB-MECA, HEK293 membranes.

Assay [6] addresses T3, human A2b receptor subtype (Homo sapiens, UniProt P29275).
T3 sequence (P29275 1-332): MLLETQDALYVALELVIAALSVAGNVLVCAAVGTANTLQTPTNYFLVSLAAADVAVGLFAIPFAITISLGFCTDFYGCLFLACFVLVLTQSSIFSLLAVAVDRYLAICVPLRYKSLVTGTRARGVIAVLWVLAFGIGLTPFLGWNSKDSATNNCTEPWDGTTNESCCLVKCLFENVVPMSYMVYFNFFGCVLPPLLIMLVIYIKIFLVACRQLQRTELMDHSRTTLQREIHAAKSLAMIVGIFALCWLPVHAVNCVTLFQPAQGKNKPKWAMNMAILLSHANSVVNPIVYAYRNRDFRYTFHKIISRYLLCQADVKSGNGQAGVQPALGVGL
Put plainly: Adenosine 2b receptor subtype competition radioligand binding, [3H] DPCPX, HEK293 membranes.

The target in assay [7] is human A2a receptor subtype (Homo sapiens, UniProt P29274). Nature of the assay: Adenosine 2a receptor subtype competition radioligand binding, [3H] CGS-21680, HEK293 membranes.
The target in assay [8] is human A2a receptor. The following applies: read-out: Reported Ki; agonist; cited from earlier work.
Where [9] appears, read: read-out: Binding Ki (nM) A2b, Table 13.
Setting [10] is: read-out: Binding Ki (nM) A2a, Table 13.

Sequence of human A2a receptor subtype (P29274 whole entry): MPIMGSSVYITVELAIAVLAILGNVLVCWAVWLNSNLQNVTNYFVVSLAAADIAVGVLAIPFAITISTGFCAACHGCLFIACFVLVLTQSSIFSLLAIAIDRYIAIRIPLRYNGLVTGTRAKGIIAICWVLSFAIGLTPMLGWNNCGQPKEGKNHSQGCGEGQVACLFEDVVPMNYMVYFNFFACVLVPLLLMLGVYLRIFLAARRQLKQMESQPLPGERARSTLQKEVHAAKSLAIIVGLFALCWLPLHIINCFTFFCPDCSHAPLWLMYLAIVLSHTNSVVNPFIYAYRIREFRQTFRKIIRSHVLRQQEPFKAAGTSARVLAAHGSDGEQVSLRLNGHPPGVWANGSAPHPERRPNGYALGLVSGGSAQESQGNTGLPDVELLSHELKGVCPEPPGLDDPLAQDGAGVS
Sequence of human A1 receptor subtype (P30542 whole entry): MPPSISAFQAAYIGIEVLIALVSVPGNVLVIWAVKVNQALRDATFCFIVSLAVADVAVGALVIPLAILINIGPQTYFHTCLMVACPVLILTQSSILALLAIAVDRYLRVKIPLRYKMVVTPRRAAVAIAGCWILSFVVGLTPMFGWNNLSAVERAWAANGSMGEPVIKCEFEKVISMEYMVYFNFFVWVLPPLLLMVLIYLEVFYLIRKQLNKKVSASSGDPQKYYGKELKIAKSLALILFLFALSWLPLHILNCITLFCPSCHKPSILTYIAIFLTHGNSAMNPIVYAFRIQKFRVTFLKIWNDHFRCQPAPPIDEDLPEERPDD
Sequence of human adenosine A1 receptor (P30542 whole entry): as above

Consider `CC(Cc1ccccc1)Nc1ncnc2c1ncn2[C@@H]1O[C@H](CO)[C@@H](O)[C@H]1O` (single isomer, unassigned; (-)) [PIA, (-)-N6-(2-phenylisopropyl)-adenosine], for which the reported affinity entry in assay [1] is “approximately 50 nM”.

By IC50 is commonly meant the concentration at which inhibition is half-maximal. For the compound `Nc1nc2ccc(Cl)cc2c2nc(-c3ccco3)nn12` [CGS-15943], in assay [2], the IC50 was determined as 55.5 nM.

Usually Ki stands for a measure of affinity in units of concentration, obtained from inhibition or displacement. Regarding `Cc1[nH]c2nc(-c3ccsc3)nc(N[C@H]3CC[C@H](O)CC3)c2c1C` [Compound 704], the Ki in assay [3] (read-out: Al Binding Ki, Table 7, Effect of C2-Substituent) came to 61.1 nM. The IC50 in assay [4] (Table 7, Effect of C2-Substituent) is 297 nM.

`Cc1[nH]c2nc(-c3ccccc3)nc(NCCCO)c2c1C` [Compound 1015]: the IC50 in assay [4] (Table 10, Effect of N6-Substituent) was 3710 nM.

With `Cc1[nH]c2nc(-c3ccccc3)nc(NCCCNC(=O)CCN)c2c1C` [Compound 1315], the Ki in assay [3] (read-out: Binding Ki (nM) A1, Table 13, Profile of Selective Adenosine Antagonists) is 75 nM; in assay [5] (read-out: Binding Ki (nM) A3, Table 13) it was 507 nM; in assay [6] (setting [9]), 3.4 nM; in assay [7] (setting [10]) it was 720 nM.

`Cc1[nH]c2nc(-c3ccccc3)nc(NCCCNC(=O)CN)c2c1C` [Compound 1316]: the Ki is 97 nM in assay [5], 710 nM in assay [6] (setting [9]) and 710 nM in assay [7] (setting [10]). In addition, the “Ki-A3 (selectivity versus other three subtypes)” value in assay [5] (Table 17, Adenosine A3 Receptor Selective Compounds) is “* (at least 10 times more selective than other three subtypes.)”.

As for `O[C@H]1CC[C@H](Nc2nc(-c3ccccc3)nc3[nH]ccc23)CC1` [Compound 1318], the figures for the Ki in assay [5] and in assay [6] were 630 ± 76 nM and 2310 ± 926 nM, respectively.

As to `O[C@H]1CC[C@H](Nc2nc(-c3cccc(F)c3)nc3[nH]ccc23)CC1` [Compound 1319, 4-(trans-4-hydroxycyclohexyl)amino-2-(3-fluorophenyl)-7H-pyrrolo [2,3d] pyrimidine], the Ki in assay [5] worked out at 270 nM; in assay [6], 802 nM; in assay [7] it was 206 nM.

In the case of `O[C@H]1CC[C@H](Nc2nc(-c3cccc(Cl)c3)nc3[nH]ccc23)CC1` [Compound 1320, 4-(trans-4-hydroxycyclohexyl)amino-2-(3-chlorophenyl)-7H-pyrrolo[2,3d] pyrimidine], the figures for the Ki in assay [5], in assay [6] and in assay [7] were 419 nM, 530 nM and 531 nM, respectively.

Regarding `O[C@H]1CC[C@H](Nc2nc(-c3ccncc3)nc3[nH]ccc23)CC1` [Compound 1321, 4-(trans-4-hydroxycyclohexyl)amino-2-(4-pyridyl)-7H-pyrrolo[2,3d]pyrimidine], the activity at 10 µM in assay [5] (read-out: % activity @ 10 µM, A3) turned out to be 54%. For the same compound, the Ki in assay [6] turned out to be 1030 nM; in assay [7] it was 131 nM.

With `CCNC(=O)[C@H]1O[C@@H](n2cnc3c(N)ncnc32)[C@H](O)[C@@H]1O` [NECA, 5'-N-ethylcarboxamidoadenosine], the Ki in assay [8] was […].

The values above are taken from patent EP1731520A1, “Pyrrolo[2,3-d]pyrimidine derivatives which are antagonists of adenosine A1, A2A, and A3” (OSI Pharmaceuticals, Inc., priority 1999, dated 2001).
